# Numbers after ± are expanded uncertainties.
# Assay: wn = mass fraction of the nth substance listed
# Details: 101.3 kPa, Liquid, Vibrating tube method
"mass density (283.15 K, w1 = 0.0695) [kg/m3]","mass density (303.15 K, w1 = 0.1382) [kg/m3]","mass density (313.15 K, w1 = 0.1853) [kg/m3]","mass density (283.15 K, w1 = 0.0569) [kg/m3]","mass density (303.15 K, w1 = 0.1084) [kg/m3]","mass density (313.15 K, w1 = 0.1419) [kg/m3]",Compound
837.4 ± 0.5,852.3 ± 0.5,870.4 ± 0.5,–,–,–,"O=C(O)CCCCC(=O)O [1,6-hexanedioic acid] + CCO"
–,–,–,836.8 ± 0.5,843.8 ± 0.5,868.6 ± 0.5,O=C(O)CCC(=O)O [butanedioic acid] + CCO

# Reference: the NIST ThermoML archive (doi:10.1021/acs.jced.6b00031)
